Data set [1] can be described thus: In vitro stability in dog plasma. Format: in vitro ADME. The note with it: 37 °C; for remaining at 1 h, 10 μM: dog, 60 min, read-out: In Vitro Stability in Plasma (% Remaining at 60 min) Mean ± SEM (n = 3), Dogs; for In Vitro Stability in Plasma (% Remaining at 60 min) Mean ± SEM (n = 3), Dogs: 10 μM. The procedure: (§1) The in vitro metabolic stability analysis of DPTIP prodrugs was performed in the plasma of mice, dogs, and humans, as previously described. Briefly, for plasma stability, 1 mL of plasma was spiked with 10 μM of the respective prodrug followed by incubation in an orbital shaker at 37 °C for 1 h (in triplicate). The samples from each incubation at predetermined time points (0 and 60 min) was quenched with 3× volume of acetonitrile containing the internal standard (IS; losartan: 0.5 μM). The samples were vortex-mixed for 30 s and centrifuged at 10,000× g for 10 min at 4 °C. Compound disappearance over time was monitored via a Dionex ultra-high-performance LC system coupled with a Q Exactive Focus orbitrap mass spectrometer (Thermo Fisher Scientific Inc., Waltham, MA, USA). Quantification of the prodrugs was performed in full scan mode (from m/z 75 to 1125) by comparing t = 0 min samples with t = 60 min samples.

The nature of data set [2]: In vitro stability in human plasma. It counts as in vitro ADME. The note with it: 37 °C; for remaining at 1 h, 10 μM: human, 60 min, read-out: In Vitro Stability in Plasma (% Remaining at 60 min) Mean ± SEM (n = 3), Humans; for In Vitro Stability in Plasma (% Remaining at 60 min) Mean ± SEM (n = 3), Humans: 10 μM. On the procedure: as §1
The nature of data set [3]: Pharmacokinetic study in dogs, released DPTIP in plasma after IV or peroral dose. It counts as in vivo, male Beagle dogs. On the procedure:
The PK studies in dogs were performed in accordance with the guidelines recommended by Pharmaron (San Diego, CA, USA) Institutional Animal Care and Use Committee. Briefly, male Beagle dogs 9 to 11 kg were obtained from the test facility’s colony of non-naïve animals. The animals were fasted overnight prior to dose administration and fed 4 h after dosing. The body weights were recorded and the animals were dosed with DPTIP, and prodrugs 2, 3, 4, 6, 7, 8, and 9 at 2 mg/kg equivalent of DPTIP as a single preoral dose PO (n = 2) with the exception of DPTIP IV dosed at 1 mg/kg (n = 1). All drugs were dissolved in the formulations (5% NMP, 5% Kolliphor, 30% PEG, and 60% water v/v) made freshly prior to dosing. The blood samples were collected via a cephalic vein at specified time points (0.083, 0.25, 0.5, 1, 2, 4, 6, 8, and 24 h) post-drug administration, and transferred into tubes containing sodium fluoride as a stabilizer (10 µL/mL of 500 µg/mL). The tubes were stored on wet ice until processed to plasma by centrifugation (3500× g at 4 °C for 10 min) within 30 min of collection. The plasma samples were transferred into individually labeled matrix tubes and stored at nominal −80 °C immediately (within 10 min of separation) until bioanalysis.
The quantification of the released DPTIP was performed using our previously published method with minor modifications. Briefly, calibration standards were prepared by spiking the DPTIP into naïve plasma from mice and dogs. All the calibration curves were constructed in the range of 1–3000 pmol/mL in the naïve sample-matched matrices in both the mouse and dog samples. Linear regression with 1/(nominal concentration) weighting factor was used for fitting the calibration curve. A correlation coefficient greater than 0.99 was considered acceptable in the analytical runs for all analyses.
The plasma samples from both mice and dogs were processed through simple protein precipitation. For this, 20 µL of plasma was mixed with 100 µL methanol containing 0.5 µM losartan (internal standards; IS) in low retention microcentrifuge tubes. All samples were vortex-mixed and centrifuged at 16,000× g for 5 min at 4 °C. A 50 µL of aliquot of supernatant was diluted with 50 µL of LC-MS water transferred to a 96-well polypropylene autosampler sealed with a Teflon cap. A volume of 2 µL was injected onto the ultra-performance liquid chromatography instrument for quantitative analysis using a temperature-controlled autosampler operating at 4 °C. Chromatographic separation was performed using a Thermo Scientific Vanquish ultra-high-performance system consisting of an analytical pump and coupled with a TSQ Altis mass spectrometer. The analytes were separated using an Agilent Eclipse Plus column (100 × 2.1 mm i.d, 1.8 μm) maintained at 35 °C. The (M+H)^+ ion transition of DPTIP (m/z 378.85 → 363.07, 200.05) and losartan (IS) (m/z 423.2 → 207.10, 180.88) were used. A gradient method was used with a mobile phase composition of 0.1% formic acid in acetonitrile and 0.1% formic acid in water.
The plasma concentrations (pmol/mL) for the mice were quantified, and plots of mean plasma concentration versus time were constructed using GraphPad Prism (10.3.0). Similarly, plasma concentrations (pmol/mL) for the dogs were measured and corresponding mean plasma concentration versus time plots were generated. The plasma concentrations in both mice and dogs were analyzed using a noncompartmental analysis method as implemented in the computer software program Phoenix WinNonlin version 8.4 (Certara USA Inc., Princeton, NJ, USA). The maximum plasma concentration (Cmax) and time to Cmax (Tmax) were the observed values. The area under the plasma concentration–time curve (AUC) values were calculated to the last quantifiable sample (AUC0–t) using the log-linear trapezoidal rule. The oral bioavailability was calculated by AUCPO divided by AUC IV with dose normalization. […]

In another data set the test system is nSMase2. The conditions noted are these: cited from earlier work.
Details of data set [4]: method as in PMID 35930706. The note with it: released DPTIP in plasma, CES1−/− mice, PO 10 mg/kg DPTIP or equivalent; previously published; cited from earlier work.
Details of data set [5]: method as in PMID 30531925, PMID 30921693. The conditions noted are these: cited from earlier work.
In another data set the test system is rat brain nSMase2. Further details: method as in PMID 33395289. The note with it: cited from earlier work.
Data set [6] in a line: Pharmacokinetic study in CES1−/− mice, released DPTIP in plasma after peroral dose. Format: in vivo, C57BL/6 CES1−/− mice. The conditions noted are these: PO 10 mg/kg DPTIP equivalent. On the procedure: In vivo mice PK studies were carried out as previously described. Briefly, mice PK studies were carried out in CES1^−/− mice according to protocols approved by the Animal Care and Use Committee at Johns Hopkins University. The C57BL/6 CES1^−/^− mice were received from the United States Army Medical Research Institute of Chemical Defense, Maryland, and maintained on a 12 h light−dark cycle with ad libitum access to food and water. Prodrugs 3, 4, 5, 6, 8, and 9 were administered at a dose of 10 mg/kg equivalent of DPTIP to CES1^−/− mice as a single peroral (PO) dose made fresh in formulation (5% DMSO, 10% tween, and 85% saline v/v/v) prior to dosing. […]
The quantification of the released DPTIP was performed using our previously published method with minor modifications. […]
The plasma samples from both mice and dogs were processed through simple protein precipitation. […] A volume of 2 µL was injected onto the ultra-performance liquid chromatography instrument for quantitative analysis using a temperature-controlled autosampler operating at 4 °C. […]
The plasma concentrations (pmol/mL) for the mice were quantified, and plots of mean plasma concentration versus time were constructed using GraphPad Prism (10.3.0). Similarly, plasma concentrations (pmol/mL) for the dogs were measured and corresponding mean plasma concentration versus time plots were generated. […]

Details of data set [7]: method as in PMID 35930706. The conditions noted are these: CES1−/− mouse plasma, 10 μM, 37 °C, previously published; cited from earlier work.
A short description of data set [8]: In vitro stability in mouse plasma. Format: in vitro ADME. The note with it: CES1−/−, 37 °C, 60 min, read-out: In Vitro Stability in Plasma (% Remaining at 60 min) Mean ± SEM (n = 3), Mice. The procedure:
as §1

On the set-up of data set [9]: method as in PMID 8593015. The note with it: valine ester prodrug, transport via PEPT1 in the intestine; cited from earlier work.

The structures appear in SMILES notation. Where two headings read alike, the source gives them in different places.

The values that follow come from PMC11768932, “Pharmacokinetic Evaluation of Neutral Sphinghomyelinase2 (nSMase2) Inhibitor Prodrugs in Mice and Dogs” (Pharmaceutics, 2024).

What is called amount remaining is the share of the starting amount still present when the sample was taken. The half-life is the time in which the quantity being followed falls by half. A word on the IC50: it is the point on the concentration scale where inhibition reaches its midpoint. As usually defined, the Tmax is the time from dosing to the highest level. On to `COc1cc(-c2nc(-c3cccs3)c(-c3ccccc3)[nH]2)cc(OC)c1O` [DPTIP, 2,6-dimethoxy-4-(5-phenyl-4-(thiophen-2-yl)-1H-imidazol-2-yl)-phenol], for which the fraction remaining at 1 h, 10 μM in data set [1] and in [2] was more than 90% in each case. Further, the t(1/2) is 223 min in data set [3] (IV 1 mg/kg (n = 1), 1 mg/kg) and 27.6 min in [4]. Besides, the clearance in data set [3] (male, Beagle, dog, plasma, IV 1 mg/kg, read-out: clearance (CL)) turned out to be 12 mL/min/kg. Moreover, the C0 in data set [3] (male, Beagle, dog, plasma, IV 1 mg/kg, read-out: initial plasma concentration (C0)) came to 2500 nM. Further, in [3] (male, Beagle, dog, plasma, IV 1 mg/kg, read-out: volume of distribution (Vd)), the Vd is 3.8 L/kg. Besides, the half-life in data set [3] (male, Beagle, dog, plasma, iv, 1 mg/kg, IV 1 mg/kg (n = 1)) is 222 min; in [5] (mice), less than 30 min. Further, the AUC(0-t) in [3] (male, Beagle, dog, plasma, iv, 1 mg/kg, IV 1 mg/kg, read-out: exposures (AUC0–t)) came to 3.9 µM·h; in data set [3] (male, Beagle, dog, plasma, iv, 1 mg/kg, IV 1 mg/kg, value dose adjusted to 2 mg/kg, read-out: AUC0–t) it was 7.81 µM·h. Further, the Cmax was 2400 nM in data set [3] (male, Beagle, dog, plasma, iv, 1 mg/kg, IV 1 mg/kg, read-out: maximum plasma concentration (Cmax)); 4800 nM in data set [3] (male, Beagle, dog, plasma, iv, 1 mg/kg, IV 1 mg/kg, value dose adjusted to 2 mg/kg, read-out: Cmax); 307 ± 93.9 nM in data set [4]. The IC50 in the data set on nSMase2 is 30 nM. In addition, the Tmax in data set [4] was 15 min. Moreover, in data set [5] (as given in abstract), the “half-life (t1/2)” value was not above 30 min. For the same compound, the “oral bioavailability (%F)” value in data set [5] (mice) is on record as less than 5%.

With `O=C(/C=C/c1ccc(/C=C/C(=O)Nc2ccc(C3=NCCN3)cc2)cc1)Nc1ccc(C2=NCCN2)cc1` [GW4869], in the data set on rat brain nSMase2, the IC50 is 1000 nM.

As to `CCCCCC(=O)Oc1c(OC)cc(-c2nc(-c3ccccc3)c(-c3cccs3)[nH]2)cc1OC` [Prodrug 3], in data set [1], the “In Vitro Stability in Plasma (% Remaining at 60 min) Mean ± SEM (n = 3), Dogs” value was 62.9 ± 7.2% and the fraction remaining at 1 h, 10 μM is approximately 60%. Besides, in [2], the “In Vitro Stability in Plasma (% Remaining at 60 min) Mean ± SEM (n = 3), Humans” value is listed as 79.3 ± 1.4% and the fraction remaining at 1 h, 10 μM is approximately 80%. In data set [6], the “fold increase in DPTIP half-life compared to DPTIP” value is listed as “no significant improvement”.

Consider `CCCCCN(C)C(=O)Oc1c(OC)cc(-c2nc(-c3ccccc3)c(-c3cccs3)[nH]2)cc1OC` [Prodrug 5], for which, in data set [1], the “In Vitro Stability in Plasma (% Remaining at 60 min) Mean ± SEM (n = 3), Dogs” value is given as 49.5 ± 1.0% and the amount remaining at 1 h, 10 μM fell in the range of 40 to 77%. Moreover, in data set [2], the “In Vitro Stability in Plasma (% Remaining at 60 min) Mean ± SEM (n = 3), Humans” value is given as 42.3 ± 2.1% and the fraction remaining at 1 h, 10 μM lay in the range of 40 to 77%. Also, in data set [7], the “In Vitro Stability in Plasma (% Remaining at 60 min) Mean ± SEM (n = 3), Mice” value was 59.9 ± 5.8 %.

On to `COc1cc(-c2nc(-c3ccccc3)c(-c3cccs3)[nH]2)cc(OC)c1OCOP(=O)(O)O` [Prodrug 6], for which the amount remaining at 1 h, 10 μM in data set [1] and in data set [2] was more than 90% each time. Also, the “fold increase in DPTIP half-life compared to DPTIP” value in data set [6] is given as “no significant improvement”.

As to `COc1cc(-c2nc(-c3ccccc3)c(-c3cccs3)[nH]2)cc(OC)c1OC(=O)[C@@H](NC(=O)[C@@H](N)C(C)C)C(C)C` [Prodrug 9], in data set [8], the share remaining at 1 h, 10 μM is 40 to 77%. For the same compound, the “In Vitro Stability in Plasma (% Remaining at 60 min) Mean ± SEM (n = 3), Dogs” value in data set [1] was 76.3 ± 1.8%. Also, in [2], the “In Vitro Stability in Plasma (% Remaining at 60 min) Mean ± SEM (n = 3), Humans” value was 76.4 ± 1.4%.

For the compound `CC(C)[C@H](N)C(=O)OCCOCn1cnc2c(=O)[nH]c(N)nc21` [valacyclovir], in data set [9], the “fold increase in oral bioavailability” value is on record as 3–5 fold.
